≈ marks a conversion by molar mass, not a printed value.
Legend:
[1] = tested on: Raphidocelis subcapitata; experiment: R. subcapitata reproduction (growth) inhibition test; format: cell-based; details: for inhibition at 100 µg/mL: read-out: Growth inhibition of R. subcapitata
Description: (§1) All tests were carried out in accordance with the OECD or ISO guidelines. In general the experimental part was divided into three main steps: (i) determination of the toxicity of the native forms of pharmaceuticals (their racemic mixtures), (ii) toxicity evaluation of the selected TPs of these pharmaceuticals, and (iii) preliminary toxicity assessment of the enantiomers of selected pharmaceuticals. For each assay, range-finding tests were conducted, in order to determine the range of concentrations for the definitive tests. The main tests were repeated three times in at least two parallel replicates, with a minimum of five concentrations for native forms of the selected pharmaceuticals (including their enantiomers). The exact number of replicates and concentrations tested was included in the description of each test. […] However, TPs were tested in a different manner; first, the tests were carried out at the limit concentration of 100 mg L^−1. […] Such approach was applied in order to observe the relative toxicity of the selected TP and its native form.
(§2) Dose-response curves were fitted using a linear logistic or logistic model (the model giving the best fit was chosen) (https://cran.r-project.org/web/packages/drfit/drfit.pdf). The mathematic formulas applied for this purpose are presented and described in the Supplementary Material. The EC50 values were given since log EC50 is a model parameter in the logistic as well as in linear logistic model.
Test organisms were provided from Algal Culture Collection (Universität Göttingen, Germany). […] The light-dark cycle was different from the OECD guidelines, and it was introduced to imitate natural growth conditions. In order to ensure that the algae are in the exponential growth phase when used to inoculate the test solutions, the stock culture was diluted three times a week. The test was carried out in 25 mL suspension cell culture flasks (Nunc) (working volume 10 mL). All operations were performed under sterile conditions. The initial cell concentration was 5 × 10^4 cells mL^−1. Eight different concentrations of every compound in three replicates and a minimum of six controls were used in each test. […] The test flasks were incubated on a shaker with a speed of approx. 75 rpm at the temperature and light conditions described above. Growth inhibition was calculated using the cell counts of the treated samples in relation to the untreated controls after 72 h of exposure. The cells were counted with the use of CASY TT Cell counter & analyzer.

[2] = tested on: Daphnia magna; experiment: D. magna acute immobilization test; format: in vivo; details: for mortality at 50 µg/mL: concentration 50 mg L^−1
Description: as §1, §2
Five pre-fed test organisms were incubated with the studied compounds diluted in 10 mL of test media in glass test vessels at 20 °C (± 1 °C) in darkness for 48 h. Each test consisted of a control and five different concentrations of the studied compound in four parallel replicates. In order to achieve a full dose-response relationship, the concentration series covered the range of 0–100% immobilization. The number of immobilized or dead organisms was checked after 24 and 48 h. The negative effect of exposure to the tested compounds was expressed by the number of immobilized organisms compared to the controls.

[3] = tested on: Lemna minor; experiment: L. minor growth inhibition test; details: for EC50 L. minor (with confidence interval 2.5–97.5%): growth rate inhibition by frond area, 7 days; for inhibition at 15 µg/mL / inhibition at 50 µg/mL: read-out: Growth inhibition of L. minor
Description: as §1, §2
One week before the assay, the inoculum cultures were prepared; eight healthy plants were placed into a new portion of the medium. Two days before the test, the plants were transferred to a fresh medium, in order to supplement nutrients and to eliminate plant metabolites. The experiments were performed in six-well plates under the conditions described above. The pH value of the Steinberg medium and all solutions was 5.5 (± 0.5). Every test included six different concentrations of compound and six controls in three replicates. The test started with one plant consisting of three fronds and the measured endpoint was the inhibition of growth rate determined by comparing the frond area (mm^2) for the treated plants and untreated controls.

[4] = tested on: Vibrio fischeri; experiment: microbe, parasite or virus in culture; format: cell-based; details: for inhibition at 10 µg/mL: concentration 10 mg L^−1
Description: (§3) Stock solutions and dilutions were prepared in 2% NaCl in 0.02 M phosphate buffer, pH 7. The freeze-dried bacteria were rehydrated prior to testing in a reactivation solution. Culture suspensions and diluted samples were pre-incubated at 15 °C for 15 min. After the initial luminescence was measured, 0.5 mL of the culture suspension was mixed with the same volume of a diluted sample. The final bioluminescence was measured after 30 min. Incubation was kept at 15 °C (LUMIStox 300 meter, Dr. Lange GmbH, Berlin, Germany). The relative toxicity of the samples was expressed as a percentage of luminescence inhibition compared to the controls.
as §3, with “m,” for “meter,”

[5] = tested on: Arthrobacter globiformis; experiment: A. globiformis dehydrogenase inhibition test (version without soil)
Description: as §1
The test strain was obtained from the German Collection of Microorganisms (DSMZ). A version of the test without soil was performed. Bacteria was grown in a sterile medium containing 10 g L^−1 peptone from casein, 5 g L^−1 yeast extract, 5 g L^−1 glucose, and 5 g L^−1 NaCl. For the test, the medium was diluted in a ratio of 1:3 in water. The inoculum was the bacteria in a log-growth phase. Cell density was adjusted to 1 × 10^8 cells mL^−1, which corresponds to an optical density (OD600nm) of 0.4. The test was performed in 24-well microplates. Each well contained 1 mL of solution of the tested compound in water and 1 mL of bacterial inoculum. Next, the plates were incubated for 2 h at 30 °C on a horizontal shaker with a speed of 100 rpm. To each well, a portion of 0.6 mL of the redox active dye resazurine (45 mg L^−1) dissolved in buffer was added. The microplates were further incubated for 1 h (30 °C, 100 rpm). To stop the reduction process, the plates were centrifuged at 3600g for 10 min. Aliquots (300 μl) of supernatant from each well were immediately transferred to the wells of a 96-well microplate in triplicates. Finally, the dehydrogenase activity was determined by measuring the formation of resorufin from resazurine using a fluorimeter ([…]). Dehydrogenase inhibition was calculated using Eq. 1.
where FBTS is the measured fluorescence of the blank (medium) with the tested substance, FTS is the measured fluorescence of the sample, FBNC is the measured fluorescence of the blank, and FNC is the measured fluorescence of the negative control (with bacteria).

[6] = growth inhibition by cell counts, 72 h
[7] = luminescence inhibition, 30 min, 15 °C
[8] = Raphidocelis subcapitata, concentration 100 mg L^−1
[9] = Aliivibrio fischeri, read-out: Luminescence inhibition

Structure (SMILES) | EC50 R. subcapitata (with confidence interval 2.5–97.5%) [1, 6] | EC50 D. magna (with confidence interval 2.5–97.5%) ([2]; immobilization, 48 h) | EC50 L. minor (with confidence interval 2.5–97.5%) [3] | inhibition at 100 µg/mL [1, 8] | inhibition at 10 µg/mL [4, 9] | inhibition at 15 µg/mL ([3]; Lemna minor) | other results
CC(C)Cc1ccc([C@@H](C)C(=O)O)cc1 (single isomer, unassigned) [IBU Isomer R, R-ibuprofen] | 11.65 (10.21–13.26) mg L^−1 | 65.83 (59.54–72.54) mg L^−1 | 12.36 (10.80–14.07) mg L^−1 | – | – | – | –
COc1ccc2cc([C@@H](C)C(=O)O)ccc2c1 (single isomer, unassigned) [NAP Isomer R, R-naproxen] | 21.08 (19.64–22.59) mg L^−1 | 97.35 (91.90–104.95) mg L^−1 | 22.37 (20.76–24.04) mg L^−1 | – | – | – | EC50 V. fischeri (with confidence interval 2.5–97.5%) [4, 7]: 7.53 (7.11–7.99) mg L^−1
COc1ccc2cc([C@H](C)C(=O)O)ccc2c1 (single isomer, unassigned) [NAP Isomer S, S-naproxen] | 27.80 (25.67–30.05) mg L^−1 | 68.76 (54.64–90.98) mg L^−1 | 29.14 (27.19–31.40) mg L^−1 | – | – | – | EC50 V. fischeri (with confidence interval 2.5–97.5%) [4, 7]: 20.60 (19.50–21.75) mg L^−1
CC(C(=O)O)c1ccc(CC(C)(C)O)cc1 (stereo not drawn) [2-OH-IBU, 2-Hydroxyibuprofen] | – | – | – | 16% | 4% | 11% | mortality at 50 µg/mL ([2]; Daphnia magna): 0%
O=C(O)Cc1ccccc1Nc1c(Cl)cc(O)cc1Cl [4-OH-DIC, 4☒Hydroxydiclofenac] | – | – | – | – | 38% | 0% | inhibition at 100 µg/mL ([5]; read-out: inhibition of bacterial growth (A. globiformis)): 14%; inhibition at 50 µg/mL ([1]; Raphidocelis subcapitata, concentration 50 mg L^−1): 45%; mortality at 60 µg/mL ([2]; Daphnia magna, concentration 60 mg L^−1): 8%
NC(=O)N1c2ccccc2CC(O)c2ccccc21 (stereo not drawn) [10-OH-CRB, 10,11-Dihydro-10-hydroxycarbamazepine] | – | – | – | 15% | – | – | inhibition at 50 µg/mL ([3]; Lemna minor): 11%
CC(Cc1ccc(C(C)C(=O)O)cc1)C(=O)O (stereo not drawn) [CBX-IBU, Carboxyibuprofen] | – | – | – | 14% | 2% | 6% | mortality at 50 µg/mL ([2]; Daphnia magna): 8%
NC(=O)N1c2ccccc2C=Cc2ccccc21 [CRB, Carbamazepine] | – | – | – | 49% | – | – | EC50 ([5]; read-out: EC50 A. globiformis): > 100 µg/mL; EC50 ([1]; Raphidocelis subcapitata, 72 h, growth inhibition by cell counts, 72 h, read-out: EC50 R. subcapitata (with confidence interval 2.5–97.5%)): > 100 µg/mL; Growth inhibition of R. subcapitata ([1]; concentration 100 mg L^−1): 48%; mortality at 100 µg/mL ([2]; Daphnia magna, concentration 100 mg L^−1): 24%; EC50 ([2]; Daphnia magna, immobilization, 48 h, read-out: EC50 D. magna (with confidence interval 2.5–97.5%)): > 100 µg/mL; EC50 ([4]; Aliivibrio fischeri, 0.5 h, luminescence inhibition, 30 min, 15 °C, read-out: EC50 V. fischeri (with confidence interval 2.5–97.5%)): > 100 µg/mL; inhibition at 100 µg/mL ([4]; Aliivibrio fischeri, concentration 100 mg L^−1, read-out: Luminescence inhibition): 42%; EC50 ([3]; Lemna minor, 168 h, read-out: EC50 L. minor (with confidence interval 2.5–97.5%), growth rate inhibition by frond area, 7 days): 50.2 µg/mL (≈ 212 µM); inhibition at 50 µg/mL ([3]; Lemna minor): 49%

— PMC7332481, “Ecotoxicity screening evaluation of selected pharmaceuticals and their transformation products towards various organisms” (Environmental Science and Pollution Research International, 2020)
